From PubChem BioAssay AID234 (DTP/NCI, 2004)
Values joined by “and” are separate entries in the source; they are usually repeats but may differ in a detail not shown here. Equal entries are not always repeated. Results filed as inconclusive are left out.

System: C3AKF1 mice, hamster liver cystadenocarcinoma s.c., tumor weight T/C
Assay: NCI In Vivo Anticancer Drug Screen. Data for tumor model Cystadenocarcinoma, Liver (No. 1) (Hamster) (subcutaneous) in C3AKF1 (CHKRF1) mice
Conditions: endpoint: mean tumor weight, schedule: Q01DX010 (ip), higher = larger tumour
Description: The antitumor activity of compounds was measured in mice bearing transplantable tumors. Survival or tumor size were measured and the results are expressed as the measurement made in the treated group (T) divided by the measurement made in the vehicle treated control group (C). The tumor model used in this assay is Cystadenocarcinoma, Liver (No. 1) (Hamster) (subcutaneous) in C3AKF1 (CHKRF1) mice

[1] = dose: 125.0 mg/kg/injection, vehicle: carboxymethylcellulose (CMC)
[2] = dose: 250.0 mg/kg/injection, vehicle: carboxymethylcellulose (CMC)
[3] = dose: 500.0 mg/kg/injection, vehicle: carboxymethylcellulose (CMC)
[4] = dose: 20.0 mg/kg/injection, vehicle: carboxymethylcellulose (CMC)
[5] = dose: 40.0 mg/kg/injection, vehicle: carboxymethylcellulose (CMC)
[6] = dose: 37.5 mg/kg/injection, vehicle: carboxymethylcellulose (CMC)
[7] = dose: 19.0 mg/kg/injection, vehicle: carboxymethylcellulose (CMC)
[8] = dose: 25.0 mg/kg/injection, vehicle: carboxymethylcellulose (CMC)
[9] = dose: 100.0 mg/kg/injection, vehicle: carboxymethylcellulose (CMC)
[10] = dose: 400.0 mg/kg/injection, vehicle: carboxymethylcellulose (CMC)
[11] = dose: 10.0 mg/kg/injection, vehicle: carboxymethylcellulose (CMC)

Compound: CS(=O)(=O)OCCCOS(C)(=O)=O
- T/C (dose: 15.0 mg/kg/injection, vehicle: carboxymethylcellulose (CMC)): 53 % of control
- T/C (dose: 30.0 mg/kg/injection, vehicle: carboxymethylcellulose (CMC)): 79 % of control
- T/C (dose: 60.0 mg/kg/injection, vehicle: carboxymethylcellulose (CMC)): 53 % of control

Compound: Nc1nc(SCc2ccccc2)c2ncn(C3CCCC3)c2n1
- T/C (dose: 62.0 mg/kg/injection, vehicle: carboxymethylcellulose (CMC)): 120 % of control
- T/C [1]: 98 % of control
- T/C [2]: 91 % of control
- T/C [3]: 81 % of control

Compound: CS(=O)(=O)OCC(=O)NCCNC(=O)COS(C)(=O)=O
- T/C [4]: 105 % of control
- T/C [5]: 100 % of control

Compound: O=C(C[N+]12CN3CN(CN(C3)C1)C2)c1ccc(Cl)cc1
- T/C [6]: 99 % of control
- T/C (dose: 75.0 mg/kg/injection, vehicle: carboxymethylcellulose (CMC)): 109 % of control
- T/C (dose: 150.0 mg/kg/injection, vehicle: carboxymethylcellulose (CMC)): 90 % of control
- T/C (dose: 300.0 mg/kg/injection, vehicle: carboxymethylcellulose (CMC)): 69 % of control

Compound: CCCCCCCCCCCCCCCCC(C(=O)O)C(O)(CC(=O)O)C(=O)O (configuration not stated)
- T/C [7]: 78 % of control
- T/C [6]: 87 % of control

Compound: S=C(N=Nc1ccccc1)NNc1ccccc1
- T/C [6]: 98 % of control

Compound: Clc1ncnc2c1ncn2C1CCCO1 (configuration not stated)
- T/C [8]: 77 % of control
- T/C [9]: 81 % of control and 93 % of control
- T/C [10]: 52 % of control and 72 % of control
- T/C (dose: 800.0 mg/kg/injection, vehicle: carboxymethylcellulose (CMC)): 113 % of control

Compound: Clc1ccc2c(Cl)ncnc2c1
- T/C (dose: 4.8 mg/kg/injection, vehicle: carboxymethylcellulose (CMC)): 116 % of control
- T/C (dose: 9.5 mg/kg/injection, vehicle: carboxymethylcellulose (CMC)): 110 % of control
- T/C [7]: 96 % of control
- T/C [6]: 104 % of control

Compound: CC1(C)CC(C)(c2ccccc2)c2ccccc21 (configuration not stated)
- T/C (dose: 62.5 mg/kg/injection, vehicle: carboxymethylcellulose (CMC)): 97 % of control
- T/C [1]: 87 % of control
- T/C [2]: 90 % of control
- T/C [3]: 65 % of control

Compound: COC(=O)[C@@H]1c2cc3c(c(O)c2[C@@H](OC2OC(C)C(OC)C(C)(OC)C2OC)C[C@]1(C)O)C(=O)c1c(O)cc2c(c1C3=O)O[C@H]1O[C@]2(C)[C@H](O)[C@@H](N(C)C)[C@@H]1O (some centres not stated)
- T/C (dose: 0.25 mg/kg/injection, vehicle: saline): 103 % of control

Compound: N[C@@H](Cc1ccc(N(CCCl)CCCl)cc1)C(=O)O
- T/C (dose: 0.5 mg/kg/injection, vehicle: carboxymethylcellulose (CMC)): 57 % of control
- T/C (dose: 1.0 mg/kg/injection, vehicle: carboxymethylcellulose (CMC)): 63 % of control
- T/C (dose: 2.0 mg/kg/injection, vehicle: carboxymethylcellulose (CMC)): 92 % of control
- T/C (dose: 4.0 mg/kg/injection, vehicle: carboxymethylcellulose (CMC)): 75 % of control

Compound: CCCn1cnc2c(SCc3ccccc3Cl)nc(N)nc21
- T/C [8]: 88 % of control
- T/C [9]: 90 % of control and 105 % of control
- T/C [10]: 96 % of control

Compound: CCCC(Sc1nc(N)nc2nc[nH]c12)C(=O)O (configuration not stated)
- T/C [11]: 66 % of control
- T/C [4]: 103 % of control
- T/C [5]: 123 % of control
- T/C (dose: 80.0 mg/kg/injection, vehicle: carboxymethylcellulose (CMC)): 116 % of control and 118 % of control
- T/C (dose: 160.0 mg/kg/injection, vehicle: carboxymethylcellulose (CMC)): 76 % of control

Compound: S=c1nc[nH]c2c1ncn2C1CCCO1 (configuration not stated)
- T/C (dose: 12.0 mg/kg/injection, vehicle: carboxymethylcellulose (CMC)): 95 % of control
- T/C [8]: 74 % of control
- T/C (dose: 50.0 mg/kg/injection, vehicle: carboxymethylcellulose (CMC)): 63 % of control

Compound: CCOC(=O)C(Cc1ccc(N(CCCl)CCCl)cc1)NC=O (configuration not stated)
- T/C [11]: 93 % of control
- T/C [4]: 93 % of control
- T/C [5]: 55 % of control
